Laboratory results reported in patent US8420621B2, “Methods of using gamma cyclodextrin to control blood glucose and insulin secretion” (Abbott Laboratories, priority 2004, dated 2013).

Columns and labels:
[1] = system: male fatty Zucker fa/fa rats; test: Meal glucose tolerance test, postprandial glycemic response to a carbohydrate challenge; format: in vivo, rat
Excerpt: The objective of the animal study was to evaluate the postprandial glycemic response of male fatty Zucker fa/fa rats to a carbohydrate challenge consisting of gamma-cyclodextrin or maltodextrin.
Twenty male fatty Zucker fa/fa rats were obtained from Harlan (Indianapolis, Ind., USA). At the time of testing, rats weighed ˜450 grams. Rats were individually housed in microisolator cages on dry bedding and were given ad libitum access to water and non-purified rat diet (pelletted; 8640 Harlan Teklad 22/5 Rodent Diet; Harlan Teklad, Madison, Wis., USA). The housing facility was maintained at 19-23° C., 30-70% relative humidity, and 12-hour light-dark cycle.
Test carbohydrates were evaluated in a randomized crossover design with a 7-day washout period between each meal glucose tolerance test (MGTT). Every rat received each treatment. Rats were routinely fed the non-purified diet. After overnight food deprivation, rats were orally fed test meals as a solution. Rats consumed the test meal within 1 minute. Blood samples were collected from the tail vein and immediately analyzed for plasma glucose by the glucose oxidase method utilizing a Precision G Blood Glucose Testing System (Medisense, Inc., Bedford, Mass., USA) before (0 minutes) and 30, 60, 90, 120, and 180 minutes postprandial. Rats had free access to water throughout the […].
Lodex 15® (maltodextrin) was obtained from Cerestar USA (Hammond, Ind., USA) with a dextrose equivalence (DE) of 15. Gamma-cyclodextrin (Wacker Cavamax W8) was obtained from Wacker Biochem Corp., Müchen, Germany. Carbohydrates were made into 500 g/L solutions with water. Each solution was heated in a microwave for 30 seconds to completely solubilize the carbohydrate solutions 1 hour before testing. Test meal volume was ˜1 mL and was adjusted such that each rat was delivered an equivalent carbohydrate challenge (1.0 g/kg body weight).

healthy adult subjects [2] = test: Clinical study: postprandial plasma glucose response; format: in vivo, human
Excerpt: Thirty-two healthy adult subjects received two treatments in a double-masked, randomized, crossover design. The two treatments consisted of 50 g challenges of either maltodextrin or gamma-cyclodextrin. Blood samples were collected over a three-hour period, and breath samples collected over an eight-hour period following consumption of each carbohydrate. […] This study utilized a randomized, double-masked, crossover design, with a 4-14 day washout period between treatments. Before completing the two treatment visits, each subject completed one pre-study gastrointestinal tolerance test visit. Randomization was carried out by sealed envelopes stating which pre-study treatment was to be received, as well as in which sequence the two treatment visits were to be carried out. These envelopes were prepared from randomization schedules generated at Ross Products Division of Abbott Laboratories, Two product coordinators assigned an envelope from the top of the pile to each subject in the order that they passed all screening criteria and were given subject numbers. Besides carrying out randomization, the product coordinators were responsible for study product inventory and serving the appropriate product to subjects at each visit so that other study staff could not become aware of the study product identity. […] At each of the two treatment visits, subjects received 16 fl oz of a study product containing either 50 g of maltodextrin or 50 g of gamma-cyclodextrin. All beverages were served cold in styrofoam cups with lids and straws, labeled only with the subject number, subject initials and visit number, with the intention of hiding any slight differences in appearance that could be visible to study staff or subjects. On two separate treatment visits, subjects received, in random order, one of the two study beverages. Three days prior to each treatment visit, subjects recorded their food and beverage intake in a food diary. Subjects were required to consume ≧150 g of carbohydrate each day for three days prior to each treatment. Subjects were not to engage in vigorous exercise for 24 hours before each treatment. Subjects consumed an evening low residue Ensure® meal and completed a 10-16 hour overnight fast as detailed previously. […] A breath sample was collected for measurement of breath hydrogen. […] Plasma glucose was measured using an AccuChek Advantage Blood Glucose Monitoring System® (Roche Diagnostics, Indianapolis, Ind.). […] Positive incremental area under the plasma glucose response curve for two hours after each treatment will be calculated using the method of Wolever et al, The glycemic index: methodology and clinical implications, Amer. […]

healthy adult subjects [3] = conditions: single 8 g doses, Koutsou et al. 1999; cited from earlier work

Question: For `OC[C@H]1O[C@@H]2O[C@H]3[C@H](O)[C@@H](O)[C@@H](O[C@H]4[C@H](O)[C@@H](O)[C@@H](O[C@H]5[C@H](O)[C@@H](O)[C@@H](O[C@H]6[C@H](O)[C@@H](O)[C@@H](O[C@H]7[C@H](O)[C@@H](O)[C@@H](O[C@H]8[C@H](O)[C@@H](O)[C@@H](O[C@H]9[C@H](O)[C@@H](O)[C@@H](O[C@H]1[C@H](O)[C@H]2O)O[C@@H]9CO)O[C@@H]8CO)O[C@@H]7CO)O[C@@H]6CO)O[C@@H]5CO)O[C@@H]4CO)O[C@@H]3CO` [Gamma-Cyclodextrin, Gamma-cyclodextrin], which “Change from baseline in plasma glucose, Change@ 0 min” value ([1]; 0 min, 1.0 g/kg body weight oral) is on record?
Answer: Its value is 0.

Question: What about the “Change from baseline in plasma glucose, Change@ 30 min” value ([1]; 30 min, 1.0 g/kg body weight oral) of the same compound?
Answer: Its value is 52.0 ± 9.4.

Question: What about the “Plasma glucose, 30 min” value ([1]; 30 min postprandial, 1.0 g/kg body weight oral) of the same compound?
Answer: The value was 165.6 ± 10.6.

Question: What about the “Change from baseline in plasma glucose, Change@ 60 min” value ([1]; 60 min, 1.0 g/kg body weight oral) of the same compound?
Answer: The value was 48.1 ± 5.5.

Question: And the “Plasma glucose, 60 min” value ([1]; 60 min postprandial, 1.0 g/kg body weight oral)?
Answer: Its value is 161.8 ± 7.8.

Question: And the “Change from baseline in plasma glucose, Change@ 90 min” value ([1]; 90 min, 1.0 g/kg body weight oral)?
Answer: The value was 38.0 ± 4.1.

Question: And the “Plasma glucose, 90 min” value ([1]; 90 min postprandial, 1.0 g/kg body weight oral)?
Answer: Its value is 151.6 ± 7.0.

Question: And the “Change from baseline in plasma glucose, Change@ 120 min” value ([1]; 120 min, 1.0 g/kg body weight oral)?
Answer: Its value is 39.4 ± 4.3.

Question: What about the “Plasma glucose, 120 min” value ([1]; 120 min postprandial, 1.0 g/kg body weight oral) of the same compound?
Answer: Its value is 153.1 ± 6.5.

Question: What about the “Change from baseline in plasma glucose, Change@ 180 min” value ([1]; 180 min, 1.0 g/kg body weight oral) of the same compound?
Answer: The value was 28.9 ± 5.3.

Question: What about the “Plasma glucose, 180 min” value ([1]; 180 min postprandial, 1.0 g/kg body weight oral) of the same compound?
Answer: The value was 142.6 ± 6.4.

Question: What about the “Glucose concentration compared to consumption of maltodextrin” value ([1]; at 60 and 90 minutes, P<0.05) of the same compound?
Answer: The value was “lower”.

Question: And the “Plasma glucose, 0 min” value ([1]; baseline before test meal, 1.0 g/kg body weight oral, mean ± spread)?
Answer: Its value is 113.6 ± 4.2.

Question: What about the “Glycemic response relative to a comparable amount of Lodex 15” value ([1]; oral, 1.0 g/kg, after heat treatment of the solution) of the same compound?
Answer: Its value is “blunted glycemic response”.

Question: And the “Plasma glucose area under the curve (AUC), effect versus maltodextrin” value (healthy adult subjects [2]; 50 g oral challenge)?
Answer: The value was “significantly reduced”.

Question: And the “Adjusted peak glucose, difference between treatments” value (healthy adult subjects [2]; 50 g oral, crossover analysis p<0.0001)?
Answer: The value was “significant difference”.

Question: And the “Positive incremental 120 min plasma glucose AUC” value (healthy adult subjects [2]; 50 g oral, mean±SEM, n=31)?
Answer: The value was 133.2±16.5.

Question: What about the “Relative glycemic response compared with maltodextrin” value (healthy adult subjects [2]; baseline to 120 min, 50 g oral) of the same compound?
Answer: The value was 55%.

Question: And the Gastrointestinal tolerance (healthy adult subjects [3])?
Answer: Its Gastrointestinal tolerance is “good tolerance”.
